Here are results for five molecules from US12378528B2, “Systems and methods for growth of intestinal cells in microfluidic devices” (EMULATE, INC., priority 2016, dated 2025).

For assay [1], the system named is mitochondrial respiration in iHTNs. The assay is described as follows: Seahorse mitochondrial stress test in iHTNs. The format is cell-based, human. As to the method: (§1) The Seahorse XF^e24 Extracellular Flux Analyzer (Seahorse Biosciences) was used to perform mitochondrial stress tests and obtain real-time measurements of oxygen consumption rate (OCR) in cells. iFGEs and iHTNS treated with or without EDCs were seeded in a 24-well Seahorse culture plate at a density of 10,000-15,000 cells/well. For analysis of OCR, cells were reconstituted in Seahorse base medium and were allowed to settle for 1 hour at 37° C. in non-CO2 incubator before measurements. Chemical reagents (Sigma) were used at final concentrations as follows: 1 μM Oligomycin—an ATP synthase inhibitor, 1 μM (FCCP) carbonyl cyanide 4-(trifluoromethoxy)phenylhydrazone—an uncoupling agent, and a mixture of 0.5 μM antimycin A—a cytochrome C reductase inhibitor and 0.5 μM rotenone—a complex I inhibitor. Results were normalized to protein concentration determined by BCA assay (Thermo Scientific).

Assay [2] deals with mitochondrial respiration in iFGEs. The assay is described as follows: Seahorse mitochondrial stress test in iFGEs. The format is cell-based, human. How it is done:
as §1

Assay [3] relates to human intestinal epithelial cells derived from IPSCs. As to the kind of experiment: FITC dextran permeability on microfluidic chip. The format is cell-based. The conditions noted are these: for permeability co-efficient of FITC dextran added to the apical channel / efflux of dextran FITC / accumulation in the basal layer: IFNgamma 10 ng/ml; for efflux of dextran FITC / accumulation in the basal layer: dextran added to apical channel. How it is done: (§2) Intestinal epithelium, derived from iPSCs, is seeded onto the microfluidic device followed by characterization of intestinal epithelial subtypes. Functional assays, including an examination of permeability via transepithelial resistance and dextran FITC efflux will be assessed either under basal conditions or in response to inflammatory cytokines such as interferon-gamma (IFNg) and/or tumor necrosis factor-alpha (TNFalpha). Also drug candidates that may modulate the various intestinal epithelial subtypes will be examined to assess if such subtypes can indeed be modulated. After establishing such assays, IPSCs from genetically defined inflammatory bowel disease (IBD) patients will be generated, differentiated into intestinal organoids, disassociated and subsequently seeded onto the microfluidic devices and the functional consequences of the genetic variations associated with IBD will be assessed.
(§3) Human intestinal epithelial cells derived from IPSCs were treated with 10 ng/ml of IFNgamma. The basal administration of IFNg leads to a decrease in transepithelial resistance and an increase in the efflux of dextran FITC in human intestinal epithelial cells derived from IPSCs. Basically this means that the intestinal epithelium is more permeable in response to this cytokine.

Assay [4] relates to STAT1 and IFNgamma responsive genes. As to the kind of experiment: STAT1 phosphorylation and gene expression in iPSC-derived intestinal epithelium on microfluidic device. It counts as cell-based, human. The conditions noted are these: administration to the lower channel. As to the method:
In one embodiment, iPSCs were directed to form HIOs and were subsequently dissociated to a single cell suspension. These cells were then seeded into a small microfluidic device (SMD) which is composed of two chambers separated by a porous flexible membrane. See, FIG. 40.

The test system of assay [5] is human intestinal epithelial cells derived from IPSCs. The assay is described as follows: Transepithelial electrical resistance (TEER) on microfluidic chip. The format is cell-based. The conditions noted are these: IFNgamma 10 ng/ml, basal administration, over time, n=4. As to the method: as §2, §3
The test system of another assay is Caco2 cells. As to the kind of experiment: Gene expression in Caco2 cells treated with IFNgamma. The format is cell-based, human.

`Cc1cc(C(C)(C)C)c(O)c(C(C)(C)C)c1` [BHT, Butylated hydroxytoluene]: the “effect on mitochondrial spare respiratory capacity” value (“effect” below) is “significant impairment” in assay [1] and “significant decrease” in assay [2].

Turning to `O=C(O)C(F)(F)C(F)(F)C(F)(F)C(F)(F)C(F)(F)C(F)(F)C(F)(F)F` [PFOA, Perfluorooctanoic acid], the “effect” value in assay [1] and in assay [2] was “did not show any effect” each time.

“IFNgamma: inflammatory cytokine interferon-gamma”: in assay [3], the “permeability co-efficient of FITC dextran added to the apical channel” value is reported as “increase” and the “efflux of dextran FITC / accumulation in the basal layer” value (from here on “efflux of dextran FITC / accumulation”) is on record as “increase”. Besides, in assay [3] (listed as INFgamma), the “efflux of dextran FITC / accumulation” value is recorded as “accumulation in the basal layer”. Besides, in assay [4], the “expression of IFNgamma responsive genes IDO1, GBP4 and/or GBP5” value is reported as “significant upregulation”; the “expression of phospholipase A2 group 2A and Muc4” value is listed as “also upregulated”; the “phosphorylation of STAT1” value is reported as “phosphorylation of STAT1”. The “transepithelial electrical resistance (TEER)” value in assay [5] is recorded as “loss of transepithelial electrical resistance”. The “transepithelial electrical resistance (TEER)” value in assay [5] (listed as IFNg) is on record as “decrease”. Also, the “expression of genes associated with intestinal epithelial subtypes” value in the assay on Caco2 cells was “no corresponding upregulation”.

As for TNFalpha, in assay [3], the “permeability co-efficient of FITC dextran added to the apical channel” value is “comparable” and the “efflux of dextran FITC / accumulation” value is recorded as “comparable”. Besides, the intestinal permeability entry in assay [3] (addition of TNFa) was “does not elicit any change”. Also, the “transepithelial electrical resistance (TEER)” value in assay [5] is recorded as “increased TEER over time comparable to controls”.

Tributyltin [TBT]: the “effect” value in assay [1] is listed as “significant impairment”.
